Measured values taken from ChEMBL document CHEMBL5233248, “Resveratrol - A comprehensive review of recent advances in anticancer drug design and development” (Eur J Med Chem, 2020).
Values joined by “and” are separate entries in the source; they are usually repeats but may differ in a detail not shown here. Equal entries are not always repeated. Residues, ends and D or L forms follow the SMILES beside them. *: point of attachment. X1 = Oc1cc(O)cc(/C=C/c2ccc(O*)cc2)c1

Assays:
[1] = tested on: MCF7; test: Anticancer activity against human MCF7 cells assessed as cell growth inhibition incubated for 24 hrs by MTT assay; format: functional, cell-based; details: MCF7, 24 h
[2] = tested on: HT-29; test: Anticancer activity against human HT-29 cells assessed as cell growth inhibition incubated for 24 hrs by MTT assay; format: functional, cell-based; details: Homo sapiens, HT-29, 24 h
[3] = tested on: HepG2; test: Anticancer activity against human HepG2 cells assessed as cell growth inhibition incubated for 24 hrs by MTT assay; format: functional, cell-based; details: HepG2, 24 h
[4] = tested on: SK-BR-3; test: Anticancer activity against human SK-BR-3 cells assessed as cell growth inhibition incubated for 24 hrs by MTT assay; format: functional, cell-based; details: SK-BR-3, 24 h
[5] = tested on: MCF7; test: Anticancer activity against human MCF7 cells assessed as cell growth inhibition incubated for 48 hrs by MTS assay; format: functional, cell-based; details: MCF7, 48 h
[6] = Cytotoxicity activity against human CCD-1059Sk cells assessed as cell growth inhibition incubated for 48 hrs by MTS assay; format: toxicity, cell-based
[7] = Cytotoxicity activity against human CCD-1059Sk cells assessed as cell growth inhibition incubated for 48 hrs in presence of Curcumin by MTS assay; format: toxicity, cell-based
[8] = tested on: HCT-116; test: Anticancer activity against human HCT-116 cells assessed as cell growth inhibition incubated for 5 days by SRB assay; format: functional, cell-based; details: HCT-116, 120 h
[9] = tested on: A2780; test: Anticancer activity against human A2780 cells assessed as cell growth inhibition incubated for 24 hrs […] by MTT assay; format: functional, cell-based; details: A2780, 24 h
[10] = tested on: OVCAR-3; test: Anticancer activity against human OVCAR-3 cells assessed as cell growth inhibition incubated for 24 hrs […] by MTT assay; format: functional, cell-based; details: OVCAR-3, 24 h
[11] = tested on: SK-OV-3; test: Anticancer activity against human SK-OV-3 cells assessed as cell growth inhibition incubated for 24 hrs […] by MTT assay; format: functional, cell-based; details: SK-OV-3, 24 h
[12] = Anticancer activity against human HOSE cells assessed as cell growth inhibition incubated for 24 hrs […] by MTT assay; format: functional, cell-based
[13] = tested on: A2780; test: Anticancer activity against human A2780 cells assessed as cell growth inhibition by LDH release assay; format: functional, cell-based
[14] = Anticancer activity against human HOSE cells assessed as cell growth inhibition by LDH release assay; format: functional, cell-based
[15] = Anticancer activity against human Peritoneal mesothelial cells assessed as cell growth inhibition incubated for 24 hrs […] by MTT assay; format: functional, cell-based
[16] = Anticancer activity against human Peritoneal mesothelial cells assessed as cell growth inhibition by LDH release assay; format: functional, cell-based
[17] = Anticancer activity against human AZ-AHR cells assessed as cell growth inhibition incubate for 24 hrs by MTT assay; format: functional, cell-based
[18] = biological target: CYP1A (Homo sapiens, UniProt P04798+P05177); test: Inhibtion of CYP1A (unknown origin); format: ADME, protein assay
[19] = tested on: HCT-116; test: Anticancer activity against human HCT-116 cells assessed as cell growth inhibition; format: functional, cell-based
[20] = tested on: HeLa; test: Anticancer activity against human HeLa cells assessed as cell growth inhibition measured after 72 hrs by MTT assay; format: functional, cell-based; details: hela; read-out: IC50
[21] = tested on: A549; test: Anticancer activity against human A549 cells assessed as cell growth inhibition measured after 72 hrs by MTT assay; format: functional, cell-based; details: a549
[22] = Anticancer activity against Lung adenocarcinoma cell line assessed as cell growth inhibition measured after 72 hrs by MTT assay; format: functional, cell-based; details: lung adenocarcinoma cell line
[23] = tested on: HT-29; test: Anticancer activity against human HT-29 cells assessed as cell growth inhibition incubated for 3 days by MTT assay; format: functional, cell-based; details: HT-29, 72 h
[24] = tested on: MCF7; test: Anticancer activity against human MCF7 cells assessed as cell growth inhibition incubated for 3 days by MTT assay; format: functional, cell-based; details: MCF7, 72 h
[25] = tested on: HEK293; test: Anticancer activity against human HEK293 cells assessed as cell growth inhibition incubated for 3 days by MTT assay; format: functional, cell-based; details: HEK293, 72 h
[26] = tested on: HepG2; test: Anticancer activity against human HepG2 cells assessed as cell growth inhibition incubated for 3 days by MTT assay; format: functional, cell-based; details: HepG2, 72 h
[27] = tested on: U-251; test: Anticancer activity against human U-251MG cells assessed as cell growth inhibition by CyQuant assay; format: functional, cell-based
[28] = tested on: MDA-MB-231; test: Anticancer activity against human MDA-MB-231 cells assessed as cell growth inhibition by CyQuant assay; format: functional, cell-based
[29] = tested on: MCF7; test: Anticancer activity against human MCF7 cells assessed as cell growth inhibition by CyQuant assay; format: functional, cell-based
[30] = tested on: PANC-1; test: Anticancer activity against human PANC-1 cells assessed as cell growth inhibition by CyQuant assay; format: functional, cell-based
[31] = Cytotoxicity against mouse NIH3T3 cells assessed as cell growth inhibition by CyQuant assay; format: toxicity, cell-based
[32] = tested on: MDA-MB-231; test: Anticancer activity against human MDA-MB-231 cells assessed as reduction in cell viability measured after 48 hrs at 150 uM by MTT assay relative to control; format: functional
[33] = tested on: ASPC1; test: Anticancer activity against human ASPC1 cells assessed as cell growth inhibition incubated for 72 hrs by MTT assay; format: functional, cell-based; details: ASPC1, 72 h
[34] = tested on: BXPC-3; test: Anticancer activity against human BXPC-3 cells assessed as cell growth inhibition incubated for 72 hrs by MTT assay; format: functional, cell-based; details: BXPC-3, 72 h
[35] = tested on: Capan-2; test: Anticancer activity against human Capan-2 cells assessed as cell growth inhibition incubated for 72 hrs by MTT assay; format: functional, cell-based; details: Capan-2, 72 h
[36] = tested on: MCF-12A; test: Anticancer activity against human MCF-12A cells assessed as reduction of cell viability incubated for 48 hrs by MTT assay; format: functional, cell-based
[37] = tested on: MCF7; test: Anticancer activity against human MCF7 cells assessed as reduction of cell viability incubated for 48 hrs by MTT assay; format: functional, cell-based; details: MCF7, 48 h
[38] = tested on: HaCaT; test: Anticancer activity against human HaCaT cells assessed as reduction of cell viability incubated for 48 hrs by MTT assay; format: functional, cell-based
[39] = tested on: A-431; test: Anticancer activity against human A-431 cells assessed as reduction of cell viability incubated for 48 hrs by MTT assay; format: functional, cell-based; details: A-431, 48 h
[40] = Growth inhibition of human leukaemia cell line; format: functional
[41] = tested on: Renal cancer cell line; test: Growth inhibition of human Renal cancer cell line; format: functional
[42] = tested on: SK-OV-3; test: Anticancer activity against human SK-OV-3 assessed as cell growth inhibition incubated for 72 hrs by MTT assay; format: functional, cell-based; details: SK-OV-3, 72 h
[43] = tested on: HeLa; test: Anticancer activity against human HeLa cells assessed as cell growth inhibition; format: functional, cell-based
[44] = tested on: MDA-MB-231; test: Anticancer activity against human MDA-MB-231 cells assessed as cell growth inhibition incubated for 24 hrs by MTT assay; format: functional, cell-based; details: MDA-MB-231, 24 h
[45] = Cytotoxicity against human MCF-10A cells assessed as cell growth inhibition incubated for 24 hrs by MTT assay; format: toxicity, cell-based
[46] = tested on: HeLa; test: Anticancer activity against human HeLa cells assessed as cell growth inhibition incubated for 48 hrs by MTT assay; format: functional, cell-based
[47] = tested on: HL-60; test: Anticancer activity against human HL-60 cells assessed as cell growth inhibition incubated for 48 hrs by MTT assay; format: functional, cell-based; details: HL-60, 48 h
[48] = tested on: MCF7; test: cells; details: Homo sapiens, MCF7, 48 h
Description: Anticancer activity against human MCF7 cells assessed as cell growth inhibition incubated for 48 hrs in presence of Curcumin by MTS assay

[49] = tested on: Ishikawa; test: cells; details: Homo sapiens
Description: Anti-tumor activity against human ishikawa cells assessed as anti-estrogenic potential

[50] = tested on: HT-29; test: cells; details: Homo sapiens, HT-29, 48 h
Description: Anti cancer activity against human HT-29 cell assessed as cell growth inhibition incubated for 48 hrs by Brdu assay

[51] = tested on: Caco-2; test: cells; details: Homo sapiens, Caco-2, 48 h
Description: Anti cancer activity against human Caco-2 cell assessed as cell growth inhibition incubated for 48 hrs by Brdu assay

[52] = tested on: HepG2; test: cells; details: Homo sapiens, HepG2, 48 h
Description: Anti cancer activity against human HepG2 cell assessed as cell growth inhibition incubated for 48 hrs by Brdu assay

[53] = tested on: PC-3; test: Anticancer activity against human PC-3 assessed as cell growth inhibition incubated for 24 hrs by MTT assay; format: functional, cell-based; details: PC-3, 24 h
[54] = tested on: MCF7; test: Anticancer activity against human MCF7 assessed as cell growth inhibition incubated for 24 hrs by MTT assay; format: functional, cell-based; details: MCF7, 24 h
[55] = Selectivity ratio of IC50 for human MCF7 cells to IC50 for human MDA-MB-231 cells; format: toxicity
[56] = Selectivity ratio of IC50 for human MDA-MB-231 cells to IC50 for human MCF7 cells
[57] = tested on: HCT-116; test: Anticancer activity against human HCT-116 assessed as cell growth inhibition incubated for 72 hrs by MTT assay; format: functional, cell-based; details: HCT-116, 72 h
[58] = tested on: MCF7; test: Anticancer activity against human MCF7 assessed as cell growth inhibition incubated for 72 hrs by MTT assay; format: functional, cell-based; details: MCF7, 72 h
[59] = tested on: NCI-H460; test: Anticancer activity against human NCI-H460 assessed as cell growth inhibition incubated for 72 hrs by MTT assay; format: functional, cell-based; details: NCI-H460, 72 h

Compound: Oc1ccc(/C=C/c2cc(O)cc(O)c2)cc1 [RESVERATROL]
- IC50 [1]: 88.2 µM
- IC50 [2]: 130 µM
- IC50 [3]: 54.9 µM
- IC50 [4]: 110 µM
- IC50 [5]: 40.5 µM
- IC50 at 48 h [6]: 188 µM
- IC50 at 48 h [7]: 83.1 µM
- IC50 [8]: 31 µM
- IC50 [9]: 48 µM
- IC50 [10]: 480 µM
- IC50 [11]: 380 µM
- IC50 [12]: 485 µM
- IC50 [13]: 65 µM
- IC50 [14]: 421 µM
- IC50 [15]: 465 µM
- IC50 [16]: 495 µM
- IC50 [17]: 19.4 µM
- IC50 [18]: 0.23 µM
- IC50 [19]: 19.4 µM
- IC50 [20]: 98.2 µM and 10.5 µM
- IC50 [21]: 66.2 µM and 10.5 µM
- IC50 [22]: 10.5 µM and 24.9 µM
- IC50 [23]: 70 µM
- IC50 [24]: 127 µM
- IC50 [25]: 12 µM
- IC50 [26]: 355 µM
- IC50 [27]: > 50 µM
- IC50 [28]: 40 µM
- IC50 [29]: 68.3 µM
- IC50 [30]: 70 µM
- IC50 [31]: > 20 µM
- Activity [32]: 58.45%
- IC50 [33]: 25 µM
- IC50 [34]: 28 µM
- IC50 [35]: 26.5 µM
- IC50 [36]: 93.5 µM
- IC50 [37]: 24.6 µM
- IC50 [38]: 85.2 µM
- IC50 [39]: 49.4 µM
- GI50 [40]: 15.9 µM
- GI50 [41]: 15.9 µM
- IC50 [42]: 48 µM
- IC50 [43]: 137 µM
- IC50 [44]: 90.6 µM
- IC50 at 24 h [45]: > 100 µM
- IC50 [46]: 152 µM
- IC50 [47]: 64.1 µM
- IC50 [48]: 61.7 µM
- IC50 [49]: 3.4 µM
- IC50 [50]: 1120 µM
- IC50 [51]: 190 µM
- IC50 [52]: 111 µM

Compound: Oc1ccc(/C=C/c2cccc(Br)n2)cc1O
- IC50 [53]: 12.4 µM
- IC50 [54]: 14.5 µM

Compound: Oc1ccc(-c2ccc3cc(O)ccc3c2)c(O)c1
- Ratio IC50 [55]: 3.3
- IC50 [1]: 26.3 µM
- IC50 [44]: 48.2 µM
- IC50 at 24 h [45]: > 100 µM
- Ratio IC50 [56]: 1.9

Compound: CC(C)C[C@H](NC(=O)[C@H](CCCCN)NC(=O)[C@H](CO)NC(=O)[C@@H](N)CC(C)C)C(=O)Oc1ccc(/C=C/c2cc(O)cc(O)c2)cc1 (H-LSKL-X1)
- IC50 [57]: 78 µM
- IC50 [58]: 58 µM
- IC50 [59]: 41 µM
